From article PMC12274840 (The Journal of Biological Chemistry, 2025)
Values joined by “and” are separate entries in the source; they are usually repeats but may differ in a detail not shown here. Equal values may be shown once. Read-outs that look alike come from different tables or passages of the source.

Legend:
[1] = test system: E. coli KA797 cells carrying pUK21 with BlaC WT (Tat); assay: microbe, parasite or virus in culture; type: cell-based; settings: in combination with 100 μg/ml carbenicillin
[2] = test system: E. coli KA797 cells carrying pUK21 with CTX-M-14 WT (Tat); assay: microbe, parasite or virus in culture; type: cell-based; settings: in combination with 100 μg/ml carbenicillin
[3] = test system: E. coli KA797 cells carrying pUK21 with KPC-2 (Tat); assay: microbe, parasite or virus in culture; type: cell-based; settings: in combination with 100 μg/ml carbenicillin
[4] = test system: E. coli KA797 cells carrying pUK21 with NmcA (pelB/Sec); assay: microbe, parasite or virus in culture; type: cell-based; settings: in combination with 25 μg/ml carbenicillin
[5] = test system: E. coli KA797 cells carrying pUK21 with TEM-1 WT (Sec); assay: microbe, parasite or virus in culture; type: cell-based; settings: in combination with 100 μg/ml carbenicillin
[6] = test system: E. coli KA797 cells carrying pUK21 with BlaC I105R; type: cell-based, Escherichia coli; settings: in combination with 100 μg/ml carbenicillin
[7] = test system: E. coli KA797 cells carrying pUK21 with BlaC I105G; type: cell-based, Escherichia coli; settings: in combination with 100 μg/ml carbenicillin
[8] = test system: E. coli KA797 cells carrying pUK21 with CTX-M-14 Y105R; type: cell-based, Escherichia coli; settings: in combination with 100 μg/ml carbenicillin
[9] = test system: E. coli KA797 cells carrying pUK21 with CTX-M-14 Y105G; type: cell-based, Escherichia coli; settings: in combination with 100 μg/ml carbenicillin
[10] = test system: E. coli KA797 cells carrying pUK21 with TEM-1 Y105R; type: cell-based, Escherichia coli; settings: in combination with 100 μg/ml carbenicillin
[11] = test system: E. coli KA797 cells carrying pUK21 with TEM-1 Y105G; type: cell-based, Escherichia coli; settings: in combination with 100 μg/ml carbenicillin
BlaC WT [12] = biological target: T1, BlaC WT (Mycobacterium tuberculosis, UniProt P9WKD3); type: biochemical
T1 construct: correspond to residue numbers 41-307 of BlaC (Uniprot entry P9WKD3-1); His tag with TEV cleavage site (N); made in house; host or cells: E. coli BL21 (DE3) pLysS
T1 sequence (P9WKD3 41-307): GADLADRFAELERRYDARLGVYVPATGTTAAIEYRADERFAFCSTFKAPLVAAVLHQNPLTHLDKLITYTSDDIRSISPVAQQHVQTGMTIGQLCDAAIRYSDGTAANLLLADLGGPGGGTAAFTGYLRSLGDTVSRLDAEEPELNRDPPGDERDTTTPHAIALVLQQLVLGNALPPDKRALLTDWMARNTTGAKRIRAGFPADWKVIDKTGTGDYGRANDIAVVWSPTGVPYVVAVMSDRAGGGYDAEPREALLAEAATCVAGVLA

CTX-M-14 WT = biological target: T2, CTX-M-14 WT (Escherichia coli, UniProt Q9L5C7); assay: biochemical
T2 construct: 29 to 291 of CTX-M-14 (Q9L5C7); His tag with TEV cleavage site (N); made in house; host or cells: E. coli BL21 (DE3) pLysS

CTX-M-14 Y105G [13] = biological target: T3, CTX-M-14 Y105G (Escherichia coli, UniProt Q9L5C7, Y108G); assay: biochemical
T3 construct: 29 to 291 of CTX-M-14 (Q9L5C7); His tag with TEV cleavage site (N); made in house; host or cells: E. coli BL21 (DE3) pLysS

TEM-1 Y105G [14] = biological target: T4, TEM-1 Y105G (Escherichia coli, UniProt P62593, Y103G); assay: In vitro inhibition of nitrocefin hydrolysis and simulation of inhibition curves, TEM-1 Y105G; type: biochemical
[15] = test system: E. coli KA797 cells carrying BlaC position 105 library; type: cell-based, Escherichia coli; settings: for Fi AVG (average fitness): average of replicates
TEM-1 WT [16] = biological target: T5, TEM-1 WT (Escherichia coli, UniProt P62593); type: biochemical; parameters: 24 to 286 of TEM-1 (P62593); His tag with TEV cleavage site (N); made in house; host or cells: E. coli BL21 (DE3) pLysS
CTX-M-14 Y105G [17] = biological target: T3, CTX-M-14 Y105G; type: biochemical
TEM-1 Y105G [18] = biological target: T4, TEM-1 Y105G; assay: Steady-state kinetics of substrate hydrolysis, TEM-1 Y105G; type: biochemical; settings: phosphate buffer pH 6.4, 25 °C
TEM-1 WT [19] = biological target: T5, TEM-1 WT; settings: phosphate buffer pH 6.4, 25 °C
BlaC WT [20] = biological target: T1, BlaC WT; settings: pH 6.4, cited from earlier work
[21] = avibactam, simulation Eq 3/9, CTX-M-14 WT
[22] = avibactam, simulation Eq 3/9, CTX-M-14 Y105G
[23] = avibactam, simulation Eq 3/9, TEM-1 WT
[24] = nitrocefin parameter (Eq 7) in simulation of avibactam inhibition curves, CTX-M-14 Y105G
[25] = nitrocefin parameter (Eq 7) in simulation of avibactam inhibition curves
[26] = nitrocefin parameter (Eq 7) in simulation of clavulanic acid inhibition curves

Which MIC of inhibitor [1] does the source give for NC(=O)[C@@H]1CC[C@@H]2CN1C(=O)N2OS(=O)(=O)O [avibactam] here?
Its MIC of inhibitor is 16 µg/mL.

And the MIC of inhibitor [2]?
Its MIC of inhibitor is 0.5 µg/mL.

And the MIC of inhibitor [3]?
The MIC of inhibitor was 0.5 µg/mL.

And the MIC of inhibitor [4]?
The MIC of inhibitor was 0.5 µg/mL.

What about the MIC of inhibitor [5] of the same compound?
The MIC of inhibitor was 1 µg/mL.

And the MIC of inhibitor [6]?
Its MIC of inhibitor is 64 µg/mL.

What about the MIC of inhibitor [7] of the same compound?
The MIC of inhibitor was 32 µg/mL.

And the MIC of inhibitor [8]?
The MIC of inhibitor was 1 µg/mL.

What about the MIC of inhibitor [9] of the same compound?
The MIC of inhibitor was 2 µg/mL.

And the MIC of inhibitor [10]?
Its MIC of inhibitor is 4 µg/mL.

What about the MIC of inhibitor [11] of the same compound?
Its MIC of inhibitor is 16 µg/mL.

What about the k2 (BlaC WT [12]) of the same compound?
The k2 was 6.5 and 6.5 10^−2 s^−1.

What about the k-2 (BlaC WT [12]) of the same compound?
Its k-2 is 0.1 and 0.1 10^−3 s^−1.

And the Ki (CTX-M-14 WT)?
The Ki was 0.47 µM.

What about the k2 (CTX-M-14 WT; [21]) of the same compound?
The k2 was 6.6 10^−2 s^−1.

And the k-2 (CTX-M-14 WT; [21])?
Its k-2 is 0.3 10^−3 s^−1.

And the k1 (CTX-M-14 WT; avibactam, simulation Eq 9, CTX-M-14 WT)?
Its k1 is 1e+06 M⁻¹ s⁻¹.

What about the Ki (CTX-M-14 Y105G [13]) of the same compound?
Its Ki is 50 µM.

What about the k2 (CTX-M-14 Y105G [13]; [22]) of the same compound?
The k2 was 4.6 10^−2 s^−1.

And the k-2 (CTX-M-14 Y105G [13]; [22])?
Its k-2 is 0.25 10^−3 s^−1.

And the k2 (TEM-1 Y105G [14]; avibactam, simulation Eq 3/9)?
The k2 was 5 10^−2 s^−1.

And the k-2 (TEM-1 Y105G [14]; avibactam, simulation Eq 3/9)?
Its k-2 is 0.75 10^−3 s^−1.

And the “Fi AVG (average fitness)” value ([15]; AA 105 Ala (BlaC I105A), relative to WT Ile)?
Its value is 0.716.

What about the “Significance of average fitness” value ([15]; AA 105 Arg (BlaC I105R)) of the same compound?
Its value is “+”.

What about the “Fi AVG (average fitness)” value ([15]; AA 105 Arg (BlaC I105R), relative to WT Ile) of the same compound?
The value was 2.021.

What about the “Fi AVG (average fitness)” value ([15]; AA 105 Asn (BlaC I105N), relative to WT Ile) of the same compound?
The value was -0.462.

What about the “Fi AVG (average fitness)” value ([15]; AA 105 Asp (BlaC I105D), relative to WT Ile) of the same compound?
The value was 0.306.

And the “Fi AVG (average fitness)” value ([15]; AA 105 Cys (BlaC I105C), relative to WT Ile)?
The value was 0.512.

What about the “Significance of average fitness” value ([15]; AA 105 Gln (BlaC I105Q)) of the same compound?
The value was “+”.

What about the “Fi AVG (average fitness)” value ([15]; AA 105 Gln (BlaC I105Q), relative to WT Ile) of the same compound?
The value was 1.438.

And the “Fi AVG (average fitness)” value ([15]; AA 105 Glu (BlaC I105E), relative to WT Ile)?
The value was 0.205.

And the “Significance of average fitness” value ([15]; AA 105 Gly (BlaC I105G))?
Its value is “+”.

And the “Fi AVG (average fitness)” value ([15]; AA 105 Gly (BlaC I105G), relative to WT Ile)?
The value was 2.428.

And the “Fi AVG (average fitness)” value ([15]; AA 105 His (BlaC I105H), relative to WT Ile)?
The value was 0.810.

And the “Fi AVG (average fitness)” value ([15]; AA 105 Ile (BlaC WT, reference))?
Its value is 0.000.

What about the “Significance of average fitness” value ([15]; AA 105 Leu (BlaC I105L)) of the same compound?
The value was “+”.

And the “Fi AVG (average fitness)” value ([15]; AA 105 Leu (BlaC I105L), relative to WT Ile)?
Its value is 1.665.

And the “Significance of average fitness” value ([15]; AA 105 Lys (BlaC I105K))?
Its value is “+”.

What about the “Fi AVG (average fitness)” value ([15]; AA 105 Lys (BlaC I105K), relative to WT Ile) of the same compound?
Its value is 0.933.

And the “Fi AVG (average fitness)” value ([15]; AA 105 Met (BlaC I105M), relative to WT Ile)?
The value was 0.542.

What about the “Significance of average fitness” value ([15]; AA 105 Phe (BlaC I105F)) of the same compound?
The value was “+”.

And the “Fi AVG (average fitness)” value ([15]; AA 105 Phe (BlaC I105F), relative to WT Ile)?
The value was 2.659.

What about the “Significance of average fitness” value ([15]; AA 105 Pro (BlaC I105P)) of the same compound?
The value was “-”.

And the “Fi AVG (average fitness)” value ([15]; AA 105 Pro (BlaC I105P), relative to WT Ile)?
Its value is -1.222.

What about the “Significance of average fitness” value ([15]; AA 105 Ser (BlaC I105S)) of the same compound?
The value was “+”.

What about the “Fi AVG (average fitness)” value ([15]; AA 105 Ser (BlaC I105S), relative to WT Ile) of the same compound?
The value was 1.393.

What about the “Significance of average fitness” value ([15]; AA 105 Thr (BlaC I105T)) of the same compound?
The value was “+”.

And the “Fi AVG (average fitness)” value ([15]; AA 105 Thr (BlaC I105T), relative to WT Ile)?
The value was 1.333.

And the “Significance of average fitness” value ([15]; AA 105 Trp (BlaC I105W))?
The value was “+”.

And the “Fi AVG (average fitness)” value ([15]; AA 105 Trp (BlaC I105W), relative to WT Ile)?
Its value is 2.468.

And the “Significance of average fitness” value ([15]; AA 105 Tyr (BlaC I105Y))?
Its value is “+”.

And the “Fi AVG (average fitness)” value ([15]; AA 105 Tyr (BlaC I105Y), relative to WT Ile)?
Its value is 3.416.

And the “Fi AVG (average fitness)” value ([15]; AA 105 Val (BlaC I105V), relative to WT Ile)?
Its value is -0.187.

And the “WT abs Fi 1” value ([15]; absolute fitness of BlaC WT (Ile 105), replicate 1)?
The value was -1.354.

And the “WT abs Fi 2” value ([15]; absolute fitness of BlaC WT (Ile 105), replicate 2)?
The value was -1.584.

And the “WT abs Fi 3” value ([15]; absolute fitness of BlaC WT (Ile 105), replicate 3)?
Its value is -0.942.

And the k2 (TEM-1 WT [16]; [23])?
The k2 was 5.7 10^−2 s^−1.

And the k-2 (TEM-1 WT [16]; [23])?
The k-2 was 0.2 10^−3 s^−1.

What about the k1 (TEM-1 WT [16]; avibactam, simulation Eq 9, TEM-1 WT) of the same compound?
Its k1 is 1e+06 M⁻¹ s⁻¹.

Which results are given for O=C(Cc1cccs1)N[C@@H]1C(=O)N2C(C(=O)O)=C(/C=C/c3ccc([N+](=O)[O-])cc3[N+](=O)[O-])CS[C@H]12 [nitrocefin]?
kcat (CTX-M-14 Y105G [17]; phosphate buffer pH 6.4, 25 °C): 963 ± 117 s⁻¹; Km (CTX-M-14 Y105G [17]; read-out: KM^app, phosphate buffer pH 6.4, 25 °C): 700 ± 172 µM; kcat (TEM-1 Y105G [18]): 453 ± 80 s⁻¹; ka (BlaC WT [12]): 1.05e+06 M⁻¹ s⁻¹; kc (BlaC WT [12]): 82.5 s⁻¹ and 56 s⁻¹; Kd (CTX-M-14 WT): 50 µM; kc (CTX-M-14 WT): 545 s⁻¹; Kd (CTX-M-14 Y105G [13]): 760 µM; ka (CTX-M-14 Y105G [13]; [24]): 5e+07 M⁻¹ s⁻¹; kc (CTX-M-14 Y105G [13]; [24]): 460 s⁻¹; ka (TEM-1 Y105G [14]; [25]): 1e+07 M⁻¹ s⁻¹; kc (TEM-1 Y105G [14]; [25]): 95 s⁻¹; ka (TEM-1 Y105G [14]; [26]): 1e+07 M⁻¹ s⁻¹; kc (TEM-1 Y105G [14]; [26]): 154 s⁻¹; kcat (TEM-1 WT [19]): 933 ± 33 s⁻¹; kcat (BlaC WT [20]): 86 ± 2 s⁻¹; Km (BlaC WT [20]; read-out: KM^app): 131 ± 2 µM; ka (TEM-1 WT [16]): 4.5e+07 M⁻¹ s⁻¹; kc (TEM-1 WT [16]): 830 s⁻¹ and 1040 s⁻¹
